This is an account of results in patent US7273866B2, “2-aryl thiazole derivatives as KCNQ modulators” (Bristol-Myers Squibb Company, priority 2002, dated 2007).

Assay [1] concerns peripheral mononeuropathy nerve injury-induced tactile allodynia. Description: Chung model of neuropathic pain (Chung surgery and von Frey test). The format is in vivo, Sprague Dawley rats. The following applies: 10 mg/kg, i.v.; von Frey thresholds over 90 min, rat. The procedure: Chung model of neuropathic pain (Chung surgery and von Frey test). To test agents for activity against peripheral mononeuropathy nerve injury-induced tactile allodynia, male Sprague Dawley rats (wt. 120-160 g) were surgically prepared with unilateral tight ligation of spinal nerves L5 and L6 following the method of Kim and Chung (Kim S. H., Chung J. M. (1992) Pain, September; 50(3):355-63). After 3-4 weeks recovery, paw withdrawal to light touch was assessed as described by Chaplan et al. (Chaplan S. R., et al., (1994) J. Neurosci Methods, July; 53(1):55-63). […] After acclimation, baseline von Frey thresholds were assessed for the injured hindpaw at −15 min. […] Following drug administration, von Frey thresholds were measured at 15, 30, 60 and 90 min. Data were analyzed by a 2-way repeated measures analysis of variance followed by Dunnett's test (p<0.05). […]
Reversal of neuropathic pain behavior may be expressed as a percentage (0-100%) of the maximum possible effect, over and above the vehicle effects. […]
For example, a compound which immediately reversed neuropathic pain behavior to normal levels, such that animals only responded to the highest von Frey filament (15 g), and maintained normal levels through out the post-drug testing period (90 min) would be calculated as Δ% MPE=100%.

The subject of a further assay is KCNQ channels. Description: Thallium flux assay for KCNQ channel openers. The following applies: HEK-293 cells stably transfected with a KCNQ family member. The format is cell-based. The gist of the method:
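HEK-293 lines stably expressing individual KCNQ members, loaded with BTC-AM in chloride-free buffer pH 7.3, compound added (1% DMSO final) before 7.5 mM Tl2SO4 stimulus; fluorescence read 60 s on FLIPR. Minimal active concentration at ≥4 SD above negative controls; EC50 from 10-point logistic fit.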

As usually defined, the EC50 is the concentration giving half of the maximal effect.

Each structure is given as a SMILES string.

With `CC(NC(=O)c1sc(-c2ccccc2F)nc1C(F)(F)F)c1cccc(OC(F)(F)F)c1` (stereo not drawn) [Example 21, 2-(2-fluorophenyl)-4-(trifluoromethyl)-N-[1-[3-(trifluoromethoxy)phenyl]ethyl]-5-thiazolecarboxamide], the “AUC (Δ % MPE)” value in assay [1] was 28 (10 mg/kg, i.v.) Δ % MPE. This compound had a Min. conc. response in the assay with KCNQ channels (minimal active concentration: lowest concentration giving signal amplitude >= four standard deviations of negative controls) of 0.3 µM. In the assay with KCNQ channels (thallium flux, 10 point concentration series), this compound gave a 50% effective concentration (EC50) of less than 50 nM.
